Results reported in US20060167091A1, “Acaricide” (priority 2003, published 2006).

Tested on: Two-spotted spider mites
Test: Miticidal test on two-spotted spider mites
Assay type: in vivo, Tetranychus urticae Koch
Settings: Tetranychus urticae, 48 h, 2 days after spraying, read-out: Mortality rate
Description: Two-spotted spider mites from the Nagano prefecture, which are poorly sensitive to chemicals, were used as mite specimens. Preparation A and Preparation B were used as chemical specimens.
A plastic cup (trade name: KP-120, manufactured by Kohnoike plastic Co., Ltd.) was filled with tap water, and the plastic cup was covered with a lid having an incision therein. A piece of non-woven fabric (4.5×5.5 cm) was cut for about 4 cm parallel to its longer side 1 cm from the edge. The portion hanging loose was suspended inside the plastic cup through the incision. A kidney bean leaf (about 3.5×4.5 cm) was placed on the sufficiently soaked, non-woven fabric. Twenty female adults of two-spotted spider mites were released into each cup.
Preparation A and Preparation B each diluted with tap water to specific concentrations were mixed, and the mixture was sprayed in a volume of 2 ml using a spray tower (Potter Spray Tower, manufactured by Burkard Manufacturing Co. Ltd, at a spraying pressure of 5 lb/inch). The kidney bean leaf was placed in a thermostatic chamber having a temperature of 25±2° C. and a humidity of 60%. The numbers of live and dead mites were counted 2 days later. The mortality rate was calculated using the equation provided below.
For comparison, mortality rates were calculated in the same manner as above except that Formulation A and Formulation B each diluted with tap water to specific concentrations were used one without each other. Mortality rate=(1−V/W)×100 where V is the survival rate in the treated area, and W is the survival rate in the untreated area.
Furthermore, the effectiveness (E) anticipated from the miticide of the present invention was calculated using the Colby equation (Weeds 15, 20-22 (1967)) to obtain a mathematical effectiveness (%): E=x+y−(x·y/100) where E is the effectiveness expressed in % anticipated from Compound A and chlorfenapyr when used at concentrations of p and q, respectively; x is the effectiveness of Compound A when used at a concentration of p; and y is the effectiveness of chlorfenapyr when used at a concentration of q.

Row | Compound | mortality at 12.5 ppm (Compound A 12.5 ppm alone (chlorfenapyr 0 ppm), female adults on kidney bean leaf) | mortality at 25 ppm (Compound A 25 ppm alone (chlorfenapyr 0 ppm)) | mortality at 50 ppm (Compound A 50 ppm alone (chlorfenapyr 0 ppm)) | mortality at 100 ppm (Compound A 100 ppm alone (chlorfenapyr 0 ppm)) | mortality at 200 ppm (Compound A 200 ppm alone (chlorfenapyr 0 ppm)) | mortality at 0.4 ppm (chlorfenapyr 0.4 ppm alone (Compound A 0 ppm)) | mortality at 1 ppm (chlorfenapyr 1 ppm alone (Compound A 0 ppm)) | mortality at 2 ppm (chlorfenapyr 2 ppm alone (Compound A 0 ppm)) | mortality at 5 ppm (chlorfenapyr 5 ppm alone (Compound A 0 ppm)) | mortality at 10 ppm (chlorfenapyr 10 ppm alone (Compound A 0 ppm))
1 | COCCOC(=O)C(C#N)(C(=O)c1ccccc1C(F)(F)F)c1ccc(C(C)(C)C)cc1 (stereo not shown) [Compound A, methoxyethyl 2-(4-tert-butylphenyl)-2-(2-trifluoromethylbenzoyl)cyanoacetate] | 19% | 45% | 48% | 25% | 66% |  |  |  |  | 
2 | CCOCn1c(-c2ccc(Cl)cc2)c(C#N)c(Br)c1C(F)(F)F [chlorfenapyr, 4-bromo-2-(4-chlorophenyl)-1-ethoxymethyl-5-trifluoromethylpyrrole-3-carbonitrile] |  |  |  |  |  | 0% | 0% | 0% | 0% | 84%
